Consider 2 compounds from patent US20020169101A1, “Treatment of sexual dysfunction” (priority 1999, published 2002).

The subject of experiment [1] is sexual behaviour of sexually dysfunctional male rats. Kind of experiment: Sexual behaviour of fluoxetine-induced sexually dysfunctional male rats. The class given is in vivo, rat. The conditions noted are these: fluoxetine-pretreated rats, Compound (1) 15 mg/kg or yohimbine 2 mg/kg i.p. 1 h before test. On the procedure:
Sprague Dawley male rats (Charles River, UK) were kept, 4 rats per cage, in a reversed lighting regime (12:12 hours, lights off at 5.00 h), with free access to food and water. The rats were pre-selected by being presented with a receptive female at 4 days intervals, i.e. every third day (having 2 clear days between presentations) until completing 6-7 trials of baseline determination. The animals showing consistently vigorous behaviour (ejaculatory latencies <300s) were chosen for further experiments. Animals were treated for 3 consecutive days with either vehicle (water) or fluoxetine (20 mg/kg, i.p., in a 2 ml/kg dosing volume). On the fourth day, the animals treated with water received vehicle (veh+veh) and the animals treated with fluoxetine received one of the three following treatments: Compound (1) (15 mg/kg, dissolved in 50% 2-hydroxypropyl-β-cyclodextrin in saline), vehicle (cyclodextrine), or yohimbine (2 mg/kg dissolved in water). All treatments were administered i.p. in a 1 ml/kg volume, 1 h before tests.
For all the sexual behaviour tests, the males were placed in an observation arena (50-60 cm diameter), starting 5 hours into the dark cycle and observed under red illumination. Three to 4 minutes after placing the male in the arena, a receptive female (ovariectomised, bearing a 7 mm Silastic implant of oestradiol benzoate) was introduced to the arena and the following parameters noted: Mount Latency: time (in seconds) taken between introduction of female and first mount. A maximum time of 15 minutes (900 seconds) was allowed, and the test terminated if no mounts were recorded within that time (FIG. 16), Ejaculation Latency: time (in seconds) taken from first intromission to ejaculation. A maximum time of 30 minutes (1800 seconds) was given, and the test terminated if ejaculation was not achieved in that time (FIG. 17), Percentage of males achieving ejaculation within 30 minutes was calculated (FIG. 18).
A one-way ANOVA followed by Dunnett's t test was used to compare the fluoxetine+vehicle group and other groups for mount and ejaculatory latencies. Percentage of animals ejaculating was analysed using a Chi-square test followed by Fisher's test. (*: P<0.05, **: P<0.01, ***: P<0.001; n=15-19).

Experiment [2] has as its target T1, human NMB receptor (BB1) (Homo sapiens, UniProt P28336).
T1 construct: expressed in transfected cells; membranes prepared from the cells
The experiment is described as follows: BB1 binding assay ([125I][Tyr4]bombesin displacement, CHO-K1 membranes). The conditions noted are these: read-out: hBB1 Ki. The essentials: (§1)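 Competition against <0.1 nM [125I][Tyr4]bombesin, 60 min for the NMB receptor and 90 min for the GRP receptor, using homogenised membranes of human-receptor-expressing CHO-K1 cells in pH 7.4 Tris buffer. Bound label was filtered and gamma-counted, with 1 μM bombesin as nonspecific. Ki values came from IC50 via Cheng-Prusoff.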

Experiment [3] addresses T2, human GRP receptor (BB2) (Homo sapiens, UniProt P30550).
T2 construct: expressed in transfected cells; membranes prepared from the cells
Kind of experiment: BB2 binding assay ([125I][Tyr4]bombesin displacement, CHO-K1 membranes). The settings on record: read-out: hBB2 Ki. The essentials: as §1

The Ki is the dissociation constant of the complex between target and ligand, obtained from inhibition or displacement.

T1 sequence (P28336 whole entry): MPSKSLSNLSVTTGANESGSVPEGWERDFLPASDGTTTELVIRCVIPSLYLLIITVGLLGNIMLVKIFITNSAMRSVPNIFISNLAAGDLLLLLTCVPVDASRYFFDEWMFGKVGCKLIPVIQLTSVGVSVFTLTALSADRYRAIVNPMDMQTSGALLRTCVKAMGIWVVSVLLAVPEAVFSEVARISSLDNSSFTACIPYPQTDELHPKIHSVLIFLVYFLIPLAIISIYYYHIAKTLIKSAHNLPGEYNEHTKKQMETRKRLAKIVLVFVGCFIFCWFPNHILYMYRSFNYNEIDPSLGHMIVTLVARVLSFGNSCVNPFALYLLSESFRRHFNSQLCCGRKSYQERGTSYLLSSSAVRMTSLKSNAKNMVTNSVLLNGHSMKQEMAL
T2 sequence (P30550 whole entry): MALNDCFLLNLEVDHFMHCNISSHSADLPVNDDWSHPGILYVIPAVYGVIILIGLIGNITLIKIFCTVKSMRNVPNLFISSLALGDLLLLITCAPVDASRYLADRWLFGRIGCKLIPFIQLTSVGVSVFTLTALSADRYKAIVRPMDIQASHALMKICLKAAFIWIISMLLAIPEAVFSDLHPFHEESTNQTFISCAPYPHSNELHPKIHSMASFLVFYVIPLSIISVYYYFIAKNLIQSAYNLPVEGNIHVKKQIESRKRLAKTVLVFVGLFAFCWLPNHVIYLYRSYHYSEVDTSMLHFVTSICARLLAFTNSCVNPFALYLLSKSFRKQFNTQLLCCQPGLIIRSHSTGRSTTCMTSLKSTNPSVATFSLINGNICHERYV

For `COc1ccc(C2(CNC(=O)[C@](C)(Cc3c[nH]c4ccccc34)NC(=O)Nc3ccc([N+](=O)[O-])cc3)CCCCC2)nc1` [Compound (1), (S) 3-(1H-Indol-3-yl)-N-[1-(5-methoxy-pyridin-2-yl)-cyclohexyl-methyl]-2-methyl-2-[3-(4-nitro-phenyl)-ureido]-propionamide], the “Mount Latency” value in experiment [1] (vs fluoxetine+vehicle (FIG. 16)) is on record as “significantly decreased”. In experiment [1] (vs fluoxetine+vehicle (FIG. 17)), the “Ejaculation Latency” value is given as “significantly decreased”. For the same compound, in experiment [1] (vs fluoxetine+vehicle (FIG. 18)), the “percentage of animals ejaculating” value was “increasing the percentage of animals ejaculating”.
`C[C@@](Cc1c[nH]c2ccccc12)(NC(=O)Nc1ccc([N+](=O)[O-])cc1)C(=O)NCC1(c2ccc(N)cc2)CCCCC1` [Compound 3, (2S)-N-{[1-(4-aminophenyl)cyclohexyl]methyl}-3-(1H-indol-3-yl)-2-methyl-2-{[(4-nitroanilino)-carbonyl]amino}propanamide]: the inhibitory constant (Ki) was 0.25 nM in experiment [2] and 46 nM in experiment [3].
